This is an account of results in US20250214942A1, “INHIBITORS OF RECEPTOR INTERACTING PROTEIN KINASE I FOR THE TREATMENT OF DISEASE” (Board of Regents, The University of Texas System, priority 2019, published 2025).

The first assay relates to human monocytic cell line U937. Kind of assay: Human U937 cellular necroptosis assay (TNFalpha + z-VAD-FMK, Cell Titer-Glo viability). The format is cell-based. The following applies: Homo sapiens, U-937, 22 h, U937 cells, 25 ng/mL human TNFalpha + 25 μM z-VAD-FMK, read-out: hU937 Avg IC50. The essentials: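 Cells resuspended in phenol red-free RPMI with 10% FBS, stimulated with 25 ng/mL human TNFalpha plus 25 μM z-VAD-FMK, then given serially diluted compound for 22 h at 37° C, 5% CO2. Viability by Cell Titer-Glo 2.0 luminescence; IC50 from four-parameter logistic fit, averaged across runs.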
Take `C[C@H](NC(=O)C12CC(Cn3ncc4cc(C#N)ccc43)(C1)C2)c1c(F)cccc1Cl` [Example 256, (S)-N-(1-(2-chloro-6-fluoro-phenyl)ethyl)-3-((5-cyano-1H-indazol-1-yl)methyl)bicyclo-[1.1.1]pentane-1-carboxamide]: the IC50 was determined as 0.895 µM.

As to `N#Cc1cnc(OCC23CC(C(=O)N4N=CCC4c4ccc(Cl)cc4)(C2)C3)cn1` (stereo not drawn) [Example 310, 5-((3-(5-(4-chlorophenyl)-4,5-dihydro-1H-pyrazole-1-carbonyl)bicyclo[1.1.1]pentan-1-yl)methoxy)pyrazine-2-carbonitrile], the IC50 amounted to 0.022 µM.

Turning to `N#Cc1cnc(OCC23CC(C(=O)NCc4cccc(F)c4F)(C2)C3)cn1` [Example 296, 3-(((5-cyanopyrazin-2-yl)-oxy)methyl)-N-(2,3-difluoro-benzyl)bicyclo[1.1.1]pentane-1-carboxamide], the concentration for half-maximal inhibition (IC50) turned out to be 5.85 µM.

Regarding `N#Cc1cnc(OCC23CC(C(=O)N4N=CCC4c4ncc5ccccn45)(C2)C3)cn1` (stereo not drawn) [Example 316, 5-((3-(5-(imidazo[1,5-a]-pyridin-3-yl)-4,5-dihydro-1H-pyrazole-1-carbonyl)bicyclo-[1.1.1]pentan-1-yl)methoxy)-pyrazine-2-carbonitrile], the IC50 was 0.694 µM.

Regarding `Cc1ccc(C2CC=NN2C(=O)C23CC(COc4cnc(C#N)cn4)(C2)C3)cc1F` (stereo not drawn) [Example 269, 5-((3-(5-(3-fluoro-4-methyl-phenyl)-4,5-dihydro-1H-pyrazole-1-carbonyl)bicyclo-[1.1.1]pentan-1-yl)-methoxy)pyrazine-2-carbonitrile], the IC50 amounted to 0.0054 µM.

Turning to `N#Cc1cnc(OCC23CC(C(=O)NCc4c(F)cccc4F)(C2)C3)cn1` [Example 294, 3-(((5-cyanopyrazin-2-yl)oxy)-methyl)-N-(2,6-difluoro-benzyl)bicyclo[1.1.1]pentane-1-carboxamide], the IC50 was found to be 5.61 µM.

Turning to `N#Cc1ccc2c(cnn2CC23CC(C(=O)N4N=CCC4c4nc(C#N)cs4)(C2)C3)c1` (stereo not drawn) [Example 254, 2-(1-(3-((5-cyano-1H-indazol-1-yl)methyl)bicyclo[1.1.1]-pentane-1-carbonyl)-4,5-dihydro-1H-pyrazol-5-yl)-thiazole-4-carbonitrile], the concentration for half-maximal inhibition (IC50) amounted to 0.503 µM.

`Cc1c(F)cc([C@@H]2CC=NN2C(=O)C23CC(COc4ccc(C#N)cn4)(C2)C3)cc1F` [Example 265, (S)-6-((3-(5-(3,5-difluoro-4-methylphenyl)-4,5-dihydro-1H-pyrazole-1-carbonyl)-bicyclo[1.1.1]pentan-1-yl)-methoxy)nicotinonitrile]: the IC50 came out at 0.0083 µM.

For `N#Cc1cnc(OCC23CC(C(=O)N4N=CCC4c4c(F)cccc4F)(C2)C3)cn1` (stereo not drawn) [Example 307, 5-((3-(5-(2,6-difluorophenyl)-4,5-dihydro-1H-pyrazole-1-carbonyl)bicyclo[1.1.1]pentan-1-yl)methoxy)pyrazine-2-carbonitrile], the IC50 stood at 0.0087 µM.

With `N#Cc1cnc(OCC23CC(C(=O)N4N=CCC4c4cc(F)cc(F)c4)(C2)C3)c(Cl)c1` (stereo not drawn) [Example 319, 5-chloro-6-((3-(5-(3,5-difluorophenyl)-4,5-dihydro-1H-pyrazole-1-carbonyl)-bicyclo[1.1.1]pentan-1-yl)-methoxy)nicotinonitrile], the IC50 was 0.021 µM.

Take `Cc1cnc(C2CC=NN2C(=O)C23CC(COc4ccc(C#N)cn4)(C2)C3)cn1` (stereo not drawn) [Example 282, 6-((3-(5-(5-methylpyrazin-2-yl)-4,5-dihydro-1H-pyrazole-1-carbonyl)bicyclo[1.1.1]-pentan-1-yl)methoxy)-nicotinonitrile]: the IC50 is 0.153 µM.

Consider `N#Cc1ccc2c(cnn2CC23CC(C(=O)N4N=CCC4c4cc(F)c(C5CC5)c(F)c4)(C2)C3)c1` (stereo not drawn) [Example 340, 1-((3-(5-(4-cyclopropyl-3,5-difluorophenyl)-4,5-dihydro-1H-pyrazole-1-carbonyl)-bicyclo[1.1.1]pentan-1-yl)-methyl)-1H-indazole-5-carbonitrile], for which the half-maximal inhibitory concentration (IC50) was 0.054 µM.

Consider `N#Cc1cnc(OCC23CC(C(=O)N4N=CCC4c4cncc(F)c4)(C2)C3)cn1` (stereo not drawn) [Example 277, 5-((3-(5-(5-fluoropyridin-3-yl)-4,5-dihydro-1H-pyrazole-1-carbonyl)bicyclo[1.1.1]-pentan-1-yl)methoxy)pyrazine-2-carbonitrile], for which the concentration for half-maximal inhibition (IC50) stood at 0.081 µM.

Consider `Cc1csc(C2CC=NN2C(=O)C23CC(Cn4ncc5cc(C#N)ccc54)(C2)C3)n1` (stereo not drawn) [Example 250, 1-((3-(5-(4-methylthiazol-2-yl)-4,5-dihydro-1H-pyrazole-1-carbonyl)bicyclo[1.1.1]-pentan-1-yl)methyl)-1H-indazole-5-carbonitrile], for which the IC50 was determined as 0.267 µM.

Turning to `N#Cc1ccc(OCC23CC(C(=O)N4N=CCC4c4ccccc4)(C2)C3)nc1` (stereo not drawn) [Example 276, 6-((3-(5-phenyl-4,5-dihydro-1H-pyrazole-1-carbonyl)-bicyclo[1.1.1]pentan-1-yl)-methoxy)nicotinonitrile], the IC50 came out at 0.076 µM.

For the molecule `N#Cc1cnc2c(ccn2CC23CC(C(=O)N4N=CCC4c4cc(F)cc(F)c4)(C2)C3)n1` (stereo not drawn) [Example 211, 5-((3-(5-(3,5-difluorophenyl)-4,5-dihydro-1H-pyrazole-1-carbonyl)bicyclo[1.1.1]pentan-1-yl)methyl)-5H-pyrrolo[2,3-b]pyrazine-2-carbonitrile], the IC50 is 0.016 µM.

Turning to `N#Cc1ccc2c(cnn2CC23CC(C(=O)N4N=CCC4c4cc(F)c(Br)c(F)c4)(C2)C3)c1` (stereo not drawn) [Example 241, 1-((3-(5-(4-bromo-3,5-difluorophenyl)-4,5-dihydro-1H-pyrazole-1-carbonyl)-bicyclo[1.1.1]pentan-1-yl)-methyl)-1H-indazole-5-carbonitrile], the half-maximal inhibitory concentration (IC50) was 0.018 µM.

Take `Cc1cc(F)c(C2CC=NN2C(=O)C23CC(COc4cnc(C#N)cn4)(C2)C3)c(F)c1` (stereo not drawn) [Example 304, 5-((3-(5-(2,6-difluoro-4-methylphenyl)-4,5-dihydro-1H-pyrazole-1-carbonyl)-bicyclo[1.1.1]pentan-1-yl)-methoxy)pyrazine-2-carbonitrile]: the concentration for half-maximal inhibition (IC50) was determined as 0.006 µM.

`N#Cc1ccc(OCC23CC(C(=O)N4N=CCC4c4cc(F)ccc4F)(C2)C3)nc1` (stereo not drawn) [Example 308, 6-((3-(5-(2,5-difluorophenyl)-4,5-dihydro-1H-pyrazole-1-carbonyl)bicyclo[1.1.1]pentan-1-yl)methoxy)nicotinonitrile]: the IC50 worked out at 0.011 µM.

Take `Cc1nc(CC#N)nn1CC12CC(C(=O)N3N=CCC3c3cc(F)cc(F)c3)(C1)C2` (stereo not drawn) [Example 223, 2-(1-((3-(5-(3,5-difluoro-phenyl)-4,5-dihydro-1H-pyrazole-1-carbonyl)bicyclo-[1.1.1]pentan-1-yl)methyl)-5-methyl-1H-1,2,4-triazol-3-yl)acetonitrile]: the IC50 amounted to 9.75 µM.

Regarding `Cn1cc(-c2ccc(OCC34CC(C(=O)N5N=CCC5c5cc(F)cc(F)c5)(C3)C4)c(Cl)c2)cn1` (stereo not drawn) [Example 341, (3-((2-chloro-4-(1-methyl-1H-pyrazol-4-yl)phenoxy)methyl)-bicyclo[1.1.1]pentan-1-yl)(5-(3,5-difluorophenyl)-4,5-dihydro-1H-pyrazol-1-yl)-methanone], the 50% inhibitory concentration (IC50) is 0.023 µM.

Take `N#Cc1ccc2c(cnn2CC23CC(C(=O)N4C[C@@H](O)C[C@H]4c4cccc(F)c4)(C2)C3)c1` (single isomer, unassigned) [Example 262]: the half-inhibitory concentration (IC50) came out at 4.67 µM.

Consider `Cc1ccc(C2CC=NN2C(=O)C23CC(COc4ccc(C#N)cn4)(C2)C3)cc1` (stereo not drawn) [Example 273, 6-((3-(5-(p-tolyl)-4,5-dihydro-1H-pyrazole-1-carbonyl)-bicyclo[1.1.1]pentan-1-yl)-methoxy)nicotinonitrile], for which the IC50 turned out to be 0.03 µM.

`COc1cc(C(O)C23CC(C(=O)N4N=CCC4c4cc(F)cc(F)c4)(C2)C3)ncn1` (stereo not drawn) [Example 232, (5-(3,5-difluorophenyl)-4,5-dihydro-1H-pyrazol-1-yl)(3-(hydroxy(6-methoxy-pyrimidin-4-yl)methyl)-bicyclo[1.1.1]pentan-1-yl)-methanone]: the IC50 was found to be 8.11 µM.

As to `N#Cc1ccc(OCC23CC(C(=O)N4N=CCC4c4ncc(F)cc4F)(C2)C3)nc1` (stereo not drawn) [Example 291, 6-((3-(5-(3,5-difluoropyridin-2-yl)-4,5-dihydro-1H-pyrazole-1-carbonyl)bicyclo-[1.1.1]pentan-1-yl)methoxy)-nicotinonitrile], the IC50 amounted to 0.62 µM.

`Cc1ccc2c(cnn2CC23CC(C(=O)N4N=CCC4c4cc(F)cc(F)c4)(C2)C3)n1` (stereo not drawn) [Example 165, (5-(3,5-difluorophenyl)-4,5-dihydro-1H-pyrazol-1-yl)(3-((5-methyl-1H-pyrazolo[4,3-b]pyridin-1-yl)methyl)-bicyclo[1.1.1]pentan-1-yl)methanone]: the concentration for half-maximal inhibition (IC50) amounted to 0.193 µM.

As to `CC(c1cc(F)ccc1F)N(C)C(=O)C12CC(COc3cnc(C#N)cn3)(C1)C2` (stereo not drawn) [Example 301, 3-(((5-cyanopyrazin-2-yl)oxy)-methyl)-N-(1-(2,5-difluoro-phenyl)ethyl)-N-methyl-bicyclo[1.1.1]pentane-1-carboxamide], the IC50 was found to be 7.74 µM.

With `CN(C(=O)C12CC(Cn3ncc4cc(C#N)ccc43)(C1)C2)c1ccccc1Cl` [Example 299, N-(2-chlorophenyl)-3-((5-cyano-1H-indazol-1-yl)-methyl)-N-methylbicyclo-[1.1.1]pentane-1-carboxamide], the 50% inhibitory concentration (IC50) worked out at 7.01 µM.

The assay is the same for the next values; noted with them: U937 cells, 25 ng/mL human TNFalpha + 25 μM z-VAD-FMK, 22 h; read-out: hU937 Avg IC50.
As for `O=C(N1N=CCC1c1cc(F)cc(F)c1)C12CC(Cn3ncc4ncccc43)(C1)C2` (stereo not drawn) [Example 148, (3-((1H-pyrazolo[4,3-b]-pyridin-1-yl)methyl)bicyclo-[1.1.1]pentan-1-yl)(5-(3,5-difluorophenyl)-4,5-dihydro-1H-pyrazol-1-yl)methanone], the IC50 turned out to be 0.912 µM.

`N#Cc1cnc(OCC23CC(C(=O)NCc4ccccc4F)(C2)C3)cn1` [Example 293, 3-(((5-cyanopyrazin-2-yl)oxy)-methyl)-N-(2-fluorobenzyl)-bicyclo[1.1.1]pentane-1-carboxamide]: the half-maximal inhibitory concentration (IC50) came to 1.5 µM.
